Consider 30 compounds from patent US20050136444A1 (priority 2003, published 2005).

One experiment concerns the target NPFF1 (Homo sapiens, UniProt Q9GZQ6). Put plainly: Receptor Selection and Amplification Technology (R-SAT) functional assay, NPFF1. Also on record: expressed in transfected cells; host or cells: NIH3T3. It is filed as cell-based. The settings on record: R-SAT, Table 1; for Emax: Efficacy is relative to endogenous ligand, read-out: NPFF1 % Efficacy; for EC50: NA = No activity detectable at the highest dose tested (20 μM), read-out: NPFF1 pEC50 (converted). The protocol:
(§1) Briefly, NIH3T3 cells were grown in 96 well tissue culture plates to 70-80% confluence. Cells were transfected for 16-20 h h with plasmid DNAs using Polyfect (Qiagen Inc.) as per manufacturer's protocols. R-SAT's were generally performed with 40 ng/well of receptor and 20 ng/well of β-galactosidase plasmid DNA. All receptor and G-protein constructs used were in the pSI-derived mammalian expression vector (Promega Inc) as described previously. […] For large-scale transfections, cells were transfected for 16-20 h, then trypsinized and frozen in DMSO. Frozen cells were later thawed, plated at ˜20,000 cells per well of a 96 half-area well plate that contained drug. With both methods, cells were then grown in a humidified atmosphere with 5% ambient CO2 for five days. Media was then removed from the plates and marker gene activity was measured by the addition of the β-galactosidase substrate o-nitrophenyl β-D-galactopyranoside (ONPG, in PBS with 0.5% NP-40). The resulting colorimetric reaction was measured in a spectrophotometric plate reader (Titertek Inc.) at 420 nm. All data were analyzed using the computer program XLFit (IDBSm).
(§2) R-SAT assay was conducted as set forth in […]

The next experiment has as its target T1, NPFF2 (Homo sapiens, UniProt Q9Y5X5).
T1 construct: expressed in transfected cells; host or cells: NIH3T3
Put plainly: Receptor Selection and Amplification Technology (R-SAT) functional assay, NPFF2. The following applies: R-SAT, Table 1; for Emax: Efficacy is relative to endogenous ligand, read-out: NPFF2 % Efficacy; for EC50: NA = No activity detectable at the highest dose tested (20 μM), read-out: NPFF2 pEC50 (converted). The experiment is classed as cell-based. The protocol: as §1, §2

Where a name gives a salt, the structure may show the parent alone.

NPFF1, sequence (Q9GZQ6 whole entry, species assumed): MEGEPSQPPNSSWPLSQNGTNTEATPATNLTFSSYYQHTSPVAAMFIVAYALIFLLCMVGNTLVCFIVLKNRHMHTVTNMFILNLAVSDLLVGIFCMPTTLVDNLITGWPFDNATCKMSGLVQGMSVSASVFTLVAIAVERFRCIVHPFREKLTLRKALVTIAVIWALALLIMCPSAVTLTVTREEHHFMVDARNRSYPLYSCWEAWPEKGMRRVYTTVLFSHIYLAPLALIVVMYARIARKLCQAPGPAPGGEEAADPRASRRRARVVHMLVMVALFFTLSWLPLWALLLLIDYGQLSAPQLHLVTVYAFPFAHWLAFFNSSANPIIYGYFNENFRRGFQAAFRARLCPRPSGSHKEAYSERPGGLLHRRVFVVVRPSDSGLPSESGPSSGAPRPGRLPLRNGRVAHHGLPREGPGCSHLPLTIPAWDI
T1 sequence (Q9Y5X5 103-522): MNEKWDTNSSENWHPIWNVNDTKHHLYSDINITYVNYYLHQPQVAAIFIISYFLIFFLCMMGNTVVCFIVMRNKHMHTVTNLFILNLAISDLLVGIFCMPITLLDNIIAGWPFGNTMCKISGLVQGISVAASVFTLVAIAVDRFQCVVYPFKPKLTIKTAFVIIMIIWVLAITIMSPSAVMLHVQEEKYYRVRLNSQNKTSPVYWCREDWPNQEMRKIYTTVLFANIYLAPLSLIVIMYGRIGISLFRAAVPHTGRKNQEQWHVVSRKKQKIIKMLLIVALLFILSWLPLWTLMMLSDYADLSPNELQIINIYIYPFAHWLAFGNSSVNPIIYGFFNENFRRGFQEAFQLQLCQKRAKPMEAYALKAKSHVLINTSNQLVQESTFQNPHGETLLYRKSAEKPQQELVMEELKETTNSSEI

For the compound `CC(=NNC(=N)N)c1ccc2c(c1)OCCO2` [Compound 2040, 1-[1-(2,3-Dihydro-benzo[1,4]dioxin-6-yl)ethylideneamino]guanidine Hydrochloride], the values for the Emax on NPFF1 and at NPFF2 were 18% and 65%, respectively. For the same compound, on NPFF2, the EC50 was 7940 nM.

For `N=C(N)NN=Cc1ccc(Cl)c(F)c1` [Compound 2030, 1-(4-Chloro-3-fluorobenzylideneamino)guanidine Hydrochloride], the figures for the Emax at NPFF1 and on NPFF2 were 6% and 62%, respectively. The EC50 at NPFF2 was 2510 nM.

For `N=C(N)NN=Cc1ccc2ccccc2c1` [Compound 2075, 1-[Naphthalen-2-yl-methylideneamino]guanidine Hydrochloride], the Emax at NPFF1 stood at 24%; at NPFF2 it was 65%. Also, the EC50 at NPFF1 was 1260 nM; at NPFF2 it was 2510 nM.

Regarding `COc1ccc(C=NNC(=N)N)cc1F` [Compound 2009, 1-(3-Fluoro-4-methoxybenzylideneamino)guanidine Hydrochloride], the Emax on NPFF1 is 9%; on NPFF2, 54%. Further, at NPFF2, the EC50 is 7940 nM.

As for `COc1ccc(C(C)=NNC(=N)N)c(O)c1` (mixture of isomers) [Compound 3030, 1-[1-(2-Hydroxy-4-methoxyphenyl)ethylideneamino]guanidine Hydrochloride], on NPFF1, the Emax came out at 7%. In addition, on NPFF2, the Emax amounted to 22% and the EC50 is 6310 nM.

With `COc1ccc(C=NNC(=N)N)c(C)c1C` [Compound 2034, 1-(4-Methoxy-2,3-dimethylbenzylideneamino)guanidine Hydrochloride], the Emax on NPFF1 was determined as 26%; on NPFF2 it was 105%. The EC50 at NPFF1 is 3980 nM; on NPFF2 it was 2510 nM.

Turning to `CC(=NNC(=N)N)c1cccc(C(F)(F)F)c1` [Compound 3027, 1-{1-[3-(Trifluoromethyl)phenyl]ethylideneamino}guanidine Hydrochloride], the figures for the Emax at NPFF1 and on NPFF2 were 5% and 63%, respectively. Moreover, the EC50 on NPFF2 was 1260 nM.

Turning to `CC(=NNC(=N)N)c1ccc2c(c1)OCO2` [Compound 3032, 1-[1-(Benzo[1,3]dioxol-5-yl)ethylideneamino]guanidine Hydrochloride], at NPFF1, the Emax was determined as 36% and the EC50 was 12600 nM. Moreover, on NPFF2, the Emax turned out to be 78% and the EC50 is 3980 nM.

As to `COc1ccc(C=NNC(=N)N)c(OC)c1` [Compound 4003, 1-(2,4-Dimethoxybenzylideneamino)guanidine Hydrochloride], on NPFF1, the Emax is 41% and the EC50 is 12600 nM. In addition, at NPFF2, the Emax was 41% and the EC50 is 6310 nM.

Regarding `N=C(N)NN=Cc1ccc(F)c(C(F)(F)F)c1` [Compound 2068, 1-[4-Fluoro-3-(trifluoromethyl)benzylideneamino]guanidine Hydrochloride], the Emax on NPFF1 came to 13%; at NPFF2 it was 61%. Besides, the EC50 on NPFF2 is 1000 nM.

On to `CCN(CC)c1ccc(C=NNC(=N)N)c(O)c1` [Compound 3037, 1-(4-Diethylamino-2-hydroxybenzylideneamino)guanidine Hydrochloride], for which the results for the Emax at NPFF1 and on NPFF2 were 39% and 59%, respectively. Besides, the figures for the EC50 on NPFF1 and on NPFF2 were 794 nM and 3160 nM, respectively.

Regarding `COc1ccc(C=NNC(=N)N)cc1Br` [Compound 2014, 1-(3-Bromo-4-methoxybenzylideneamino)guanidine Hydrochloride], the Emax at NPFF1 was 8%. Also, on NPFF2, the Emax amounted to 35% and the EC50 is 2000 nM.

Regarding `Cc1ccc(C=NNC(=N)N)cc1C` [Compound 3019, 1-(3,4-Dimethylbenzylideneamino)guanidine Hydrochloride], the Emax on NPFF1 amounted to 12%. At NPFF2, the Emax was 86% and the EC50 is 2510 nM.

Take `CC(=NNC(=N)N)c1cccc(C)c1` [Compound 3017, 1-[1-(3-Methylphenyl)ethylideneamino]guanidine Hydrochloride]: the Emax on NPFF1 came out at 17%. At NPFF2, the Emax was determined as 80% and the EC50 is 6310 nM.

As to `CCN(CC)c1ccc(C=NNC(=N)N)c(OC)c1` [Compound 3043, 1-(2-Methoxy-4-N,N-diethylaminobenzylideneamino)guanidine Hydrochloride], at NPFF1, the Emax is 60% and the EC50 was 1000 nM. Moreover, at NPFF2, the Emax came to 92% and the EC50 is 1000 nM.

As to `[H]/N=C(\N)NN=Cc1ccc(Cl)cc1` [Compound 4008, 1-(4-Chlorobenzylideneamino)guanidine Hydrochloride], at NPFF1, the Emax stood at 47% and the EC50 was 3980 nM. In addition, on NPFF2, the Emax was 64% and the EC50 is 6310 nM.

Turning to `NC(N)=NN=Cc1ccc(Cl)c(C(F)(F)F)c1` [Compound 2035, 1-[4-Chloro-3-(trifluoromethyl)benzylideneamino]guanidine Hydrochloride], at NPFF1, the Emax stood at 45% and the EC50 is 3980 nM. Besides, the Emax at NPFF2 amounted to 114%.

As to `Cc1ccc(C=NNC(=N)N)c(C)c1` [Compound 2077, 1-[2,4-Dimethylbenzylideneamino]guanidine Hydrochloride], the values for the Emax at NPFF1 and on NPFF2 were 21% and 61%, respectively. The EC50 was 398 nM at NPFF1 and 3160 nM at NPFF2.

`N=C(N)NN=Cc1ccc(F)c2ccccc12` [Compound 2072, 1-[(4-Fluoro-1-naphthalen-1-yl)methylideneamino]guanidine Hydrochloride]: the Emax on NPFF1 turned out to be 11%; on NPFF2, 50%. The EC50 on NPFF2 is 2000 nM.

`CCCCC(=NNC(=N)N)c1ccc(N(C)C)cc1` (mixture of isomers) [Compound 3035, 1-[1-(4-Dimethylaminophenyl)pentylideneamino]guanidine]: at NPFF1, the Emax was 81% and the EC50 is 3160 nM. Also, at NPFF2, the Emax came out at 69% and the EC50 was 2000 nM.

Turning to `CCC(=NNC(=N)N)c1ccc(Cl)c(Cl)c1` [Compound 2056, 1-(3,4-Dichlorophenyl)-1-(propylideneaminoguanidine) Hydrochloride], on NPFF1, the Emax turned out to be 6%. Further, on NPFF2, the Emax was 73% and the EC50 was 501 nM.

As for `Cc1cc(C=NNC(=N)N)cc(C)c1O` [Compound 2033, 1-(3,5-Dimethyl-4-hydroxybenzylideneamino)guanidine Hydrochloride], the Emax on NPFF1 was 7%. Further, on NPFF2, the Emax was 33% and the EC50 was 10000 nM.

With `CCN(CC)c1ccc(C=NNC(=N)N)cc1` [Compound 3038, 1-(4-Diethylaminobenzylideneamino)guanidine Hydrochloride], the results for the Emax on NPFF1 and at NPFF2 were 72% and 65%, respectively. For the same compound, the EC50 is 1000 nM on NPFF1 and 1260 nM at NPFF2.

As to `CCOCCOc1ccc(/C=N/NC(=N)N)cc1Cl` [Compound 2054, 1-[3-Chloro-4-(2-ethoxy-ethoxy)benzylideneamino])guanidine Acetate], the Emax on NPFF1 was found to be 21%; on NPFF2, 96%. For the same compound, at NPFF2, the EC50 was 10000 nM.

As to `N=C(N)NN=Cc1ccc(C(F)(F)F)c(F)c1` [Compound 2063, 1-[3-Fluoro-4-(trifluoromethyl)benzylideneamino]guanidine Hydrochloride], on NPFF1, the Emax came out at 36% and the EC50 was 3160 nM. Also, at NPFF2, the Emax is 78% and the EC50 was 2510 nM.

`CCc1ccc(C=NNC(=N)N)cc1` [Compound 3025, 1-(4-Ethylbenzylideneamino)guanidine Hydrochloride]: at NPFF1, the Emax was determined as 28% and the EC50 was 3160 nM. Also, at NPFF2, the Emax is 101% and the EC50 is 2000 nM.

With `N=C(N)NN=Cc1cc2c(cc1Br)OCO2` [Compound 3015, 1-[(6-Bromobenzo[1,3]dioxol-5-yl)methylideneamino]guanidine Hydrochloride], at NPFF1, the Emax was found to be 26% and the EC50 was 1000 nM. Moreover, at NPFF2, the Emax came to 70% and the EC50 was 1260 nM.

For the compound `CCN(CCO)c1ccc(C=NNC(=N)N)c(C)c1` [Compound 3036, 1-{4-[Ethyl-(2-hydroxyethyl)amino]-2-methylbenzylideneamino}guanidine Hydrochloride], on NPFF1, the Emax amounted to 84% and the EC50 is 1260 nM. Further, at NPFF2, the Emax amounted to 82% and the EC50 is 631 nM.

Consider `N=C(N)NN=Cc1cc(C(F)(F)F)ccc1Cl` [Compound 2069, 1-[2-Chloro-5-(trifluoromethyl)benzylideneamino]guanidine Hydrochloride], for which, on NPFF1, the Emax turned out to be 8%. Further, on NPFF2, the Emax is 40% and the EC50 was 3160 nM.

Turning to `COc1cccc(C=NNC(=N)N)c1OCc1ccccc1` [Compound 3006, 1-(2-Benzyloxy-3-methoxybenzylideneamino)guanidine Hydrochloride], the Emax on NPFF1 came out at 14%; at NPFF2, 47%. Further, at NPFF2, the EC50 is 794 nM.
